Four compounds from patent US7244741B2, “Fredericamycin derivatives as medicaments for treating tumours” (Biofrontera Discovery GmbH, priority 2002, dated 2007) can be followed below.

The subject of the assay is 12 cancer cell lines: LCL (H460/lung), MACL (MCF7, breast), LXFL (529L, lung), LXFA (629L, lung), MEXF (462NL, melanoma), MEXF (514L, melanoma), MAXF (401NL …). Nature of the assay: Biological activity against 12 cancer cell lines (IC70 averaged over all cell lines). It counts as cell-based. To be noted: mean over 12 cancer cell lines; 5 test concentrations. As for the experimental part: Biological Activity Against 12 Cancer Cell Lines: LCL (H460/lung), MACL (MCF7, breast), LXFL ([…], lung), LXFA ([…], lung), MEXF (462NL, melanoma), MEXF ([…], melanoma), MAXF (401NL, breast), RXF ([…], renal), RXF ([…], renal), UXF ([…], uterus), […]1). Efficacy (IC70), averaged over all cell lines in μg/ml with 5 test concentrations.
In the case of `C/C=C/C=C/c1cc2cc3c(c(O)c2c(=O)[nH]1)[C@@]1(C(=O)c2c(O)c4c(c(O)c2C1=O)C(=O)C(OC)=CC4=O)C(SCCO)C3` (stereo partly drawn) [Example 3, (8S)-4′,9,9′-trihydroxy-6′-methoxy-7(2-hydroxyethylmercapto)-3-[(1E,3E)-penta-1,3-dienyl]-6,7-dihydrospiro[cyclopenta[g]isoquinoline-8,2′-cyclopenta[b]-napthalene]-1,1′-3′,5′,8′(2H)-pentone], the “Efficacy (IC70), averaged over all cell lines” value (from here on “Efficacy … over all cell lines”) amounted to 0.1340 µg/mL. With `C/C=C/C=C/c1cc2cc3c(c(O)c2c(=O)[nH]1)C1(CC3)C(=O)c2c(O)c3c(c(O)c2C1=O)C(=O)C(OC)=CC3=O` (stereo not shown) [Fredericamycin], the “Efficacy … over all cell lines” value was determined as 0.2790 µg/mL. Regarding `N.N.[Cl][Pt][Cl]` [Cisplatin], the “Efficacy … over all cell lines” value is 37.1020 µg/mL.

As for `COc1cccc2c1C(=O)c1c(O)c3c(c(O)c1C2=O)C[C@@](O)(C(=O)CO)C[C@@H]3O[C@H]1C[C@H](N)[C@H](O)[C@H](C)O1` [Adriamycin], the “Efficacy … over all cell lines” value is 0.0210 µg/mL.
